In this assay the test system is α-synuclein cytotoxicity in M17-SYNwt cells. The experiment in a line: α-synuclein cytotoxicity assay: LDH leakage from paraquat-treated M17-SYNwt neuroblastoma cells.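 As to all read-outs here: paraquat at 32 mM co-added with compound, 40 h exposure, LDH activity released into the culture medium measured, references are DMSO-only cells and paraquat plus DMSO cells.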 Particulars: Homo sapiens, Neuroblastoma cell; for Emax: read-out: % Inhib. (In general: Release of lactate dehydrogenase indicates damage to the cell membrane.)

On to `O=C(Cc1ccccc1)N1CCN(c2nc(Cc3ccc(F)cc3)ns2)CC1` [compound 1, 4-phenylacetyl-1-[3-(4-fluorobenzyl)-1,2,4-thiadiazol-5-yl]piperazine], for which the EC50 (in general, the midpoint of the concentration-response curve) is 0.15 µM and the Emax stood at 75%.

In the case of `O=C(Cc1ccc(F)cc1)N1CCN(c2nc(Cc3ccc(F)cc3)ns2)CC1` [compound 2, 4-(4-fluorophenylacetyl),-1-[3-(4-fluorobenzyl)-1,2,4-thiadiazol-5-yl]piperazine], the EC50 worked out at 0.25 µM and the Emax came to 54%.

On to `Cc1ccc(Cc2nsc(N3CCN(C(=O)Cc4ccc(F)cc4)C(C)C3)n2)cc1` (stereo not shown) [compound 3, 1-(4-fluorophenylacetyl)-4-[3-(4-methylbenzyl)-1,2,4-thiadiazol-5-yl]-2-methylpiperazine], for which the concentration giving a half-maximal response (EC50) was 2.2 µM and the Emax was found to be 76%.

For `COc1ccc(CC(=O)N2CCN(c3nc(Cc4ccc(F)cc4)ns3)CC2C)cc1` (stereo not shown) [compound 4, 1-(4-methoxyphenylacetyl)-4-[3-(4-fluorobenzyl)-1,2,4-thiadiazol-5-yl]-2-methylpiperazine], the 50% effective concentration (EC50) worked out at 0.82 µM and the Emax is 56%.

For the compound `CC1CN(c2nc(Cc3ccc(F)cc3)ns2)CCN1C(=O)Cc1ccccc1` (stereo not shown) [compound 5, 1-phenylacetyl-4-[3-(4-fluorobenzyl)-1,2,4-thiadiazol-5-yl]-2-methylpiperazine], the Emax worked out at 83%.

In the case of `CC1CN(c2nc(Cc3ccc(F)cc3)ns2)CCN1C(=O)Cc1ccc(F)cc1` (stereo not shown) [compound 6], the Emax stood at 75%.

Turning to `CC1CN(c2nc(Cc3ccc(F)cc3)ns2)CCN1C(=O)C(Cl)c1ccccc1` (stereo not shown) [compound 7, 1-[chloro(phenyl)acetyl]-4-[3-(4-fluorobenzyl)-1,2,4-thiadiazol-5-yl]-2-methylpiperazine], the Emax was 69%.

For `CCC(C(=O)N1CCN(c2nc(Cc3ccc(F)cc3)ns2)CC1C)c1ccccc1` (stereo not shown) [compound 8, 1-(2-phenylbutanoyl)-4-[3-(4-fluorobenzyl)-1,2,4-thiadiazol-5-yl]-2-methylpiperazine], the response was half-maximal at 1.49 µM (EC50) and the Emax was determined as 71%.

Turning to `O=C(Nc1cccc(F)c1)N1CCN(c2nc(Cc3ccc(F)cc3)ns2)CC1` [compound 9, N-(3-fluorophenyl)-4-[3-(4-fluorobenzyl)-1,2,4-thiadiazol-5-yl]piperazine-1-carboxamide], it took 0.52 µM to reach a half-maximal effect (EC50) and the Emax was determined as 53%.

With `Cc1ccccc1NC(=O)N1CCN(c2nc(Cc3ccc(F)cc3)ns2)CC1C` (stereo not shown) [compound 10, N-(2-methylphenyl)-4-[3-(4-fluorobenzyl)-1,2,4-thiadiazol-5-yl]-2-methylpiperazine-1-carboxamide], the EC50 was found to be 0.6 µM and the Emax turned out to be 72%.

With `CCc1ccc(NC(=O)N2CCN(c3nc(Cc4ccc(F)cc4)ns3)CC2C)cc1` (stereo not shown) [compound 11, N-(4-ethylphenyl)-4-[3-(4-fluorobenzyl)-1,2,4-thiadiazol-5-yl]-2-methylpiperazine-1-carboxamide], a half-maximal effect (EC50) was put at 0.69 µM and the Emax came out at 73%.

Regarding `CCc1ccccc1NC(=O)N1CCN(c2nc(Cc3ccc(F)cc3)ns2)CC1C` (stereo not shown) [compound 12, N-(2-ethylphenyl)-4-[3-(4-fluorobenzyl)-1,2,4-thiadiazol-5-yl]-2-methylpiperazine-1-carboxamide], the EC50 is 0.89 µM and the Emax was 92%.

Regarding `O=C(Nc1ccccc1)N1CCN(c2nc(Cc3ccc(F)cc3)ns2)CC1` [compound 13, N-phenyl-4-[3-(4-fluorobenzyl)-1,2,4-thiadiazol-5-yl]piperazine-1-carboxamide], the concentration for a half-maximal effect (EC50) stood at 1.23 µM and the Emax came out at 71%.

Regarding `CCOc1ccc(NC(=O)N2CCN(c3nc(Cc4ccc(F)cc4)ns3)CC2C)cc1` (stereo not shown) [compound 14, N-(4-ethoxyphenyl)-4-[3-(4-fluorobenzyl)-1,2,4-thiadiazol-5-yl]-2-methylpiperazine-1-carboxamide], the response was half-maximal at 1.73 µM (EC50) and the Emax amounted to 70%.

For `Cc1ccccc1NC(=O)N1CCN(c2nc(Cc3ccc(F)cc3)ns2)CC1` [compound 15, N-(2-methylphenyl)-4-[3-(4-fluorobenzyl)-1,2,4-thiadiazol-5-yl]piperazine-1-carboxamide], a half-maximal effect (EC50) was put at 5.01 µM and the Emax was found to be 65%.

Regarding `O=C(Nc1ccccc1F)N1CCN(c2nc(Cc3ccc(F)cc3)ns2)CC1` [compound 16, N-(2-fluorophenyl)-4-[3-(4-fluorobenzyl)-1,2,4-thiadiazol-5-yl]piperazine-1-carboxamide], the EC50 stood at 5.68 µM and the Emax came out at 72%.

On to `O=C(Nc1ccccc1C(F)(F)F)N1CCN(c2nc(Cc3ccc(F)cc3)ns2)CC1` [compound 17, N-(2-trifluoromethylphenyl)-4-[3-(4-fluorobenzyl)-1,2,4-thiadiazol-5-yl]piperazine-1-carboxamide], for which the Emax is 46%.

Regarding `CC1CN(c2nc(Cc3ccc(F)cc3)ns2)CCN1C(=O)Nc1ccccc1C(F)(F)F` (stereo not shown) [compound 18, N-(2-trifluoromethylphenyl)-4-[3-(4-fluorobenzyl)-1,2,4-thiadiazol-5-yl]-2-methylpiperazine-1-carboxamide], the Emax was found to be 41%.

In the case of `Cc1cccc(C)c1NC(=O)N1CCN(c2nc(Cc3ccc(F)cc3)ns2)CC1C` (stereo not shown) [compound 19, N-(2,6-dimethylphenyl)-4-[3-(4-fluorobenzyl)-1,2,4-thiadiazol-5-yl]-2-methylpiperazine-1-carboxamide], the EC50 stood at 0.2 µM and the Emax turned out to be 95%.

With `Cc1ccc(NC(=O)N2CCN(c3nc(Cc4ccc(F)cc4)ns3)CC2C)c(C)c1` (stereo not shown) [compound 20, N-(2,4-dimethylphenyl)-4-[3-(4-fluorobenzyl)-1,2,4-thiadiazol-5-yl]-2-methylpiperazine-1-carboxamide], the concentration for a half-maximal effect (EC50) was found to be 0.76 µM and the Emax was found to be 106%.

On to `CC1CN(c2nc(Cc3ccc(F)cc3)ns2)CCN1C(=O)Nc1ccc(F)cc1F` (stereo not shown) [compound 23, N-(2,4-difluorophenyl)-4-[3-(4-fluorobenzyl)-1,2,4-thiadiazol-5-yl]-2-methylpiperazine-1-carboxamide], for which the EC50 was 0.94 µM and the Emax came to 66%.

Take `Cc1cccc(C)c1NC(=O)N1CCN(c2nc(Cc3ccc(F)cc3)ns2)CC1` [compound 24, N-(2,6-dimethylphenyl)-4-[3-(4-fluorobenzyl)-1,2,4-thiadiazol-5-yl]piperazine-1-carboxamide]: the EC50 was found to be 1.2 µM and the Emax is 124%.

Take `CC1CN(c2nc(Cc3ccc(F)cc3)ns2)CCN1C(=O)Nc1cccc2ccccc12` (stereo not shown) [compound 25, N-1-naphtyl-4-[3-(4-fluorobenzyl)-1,2,4-thiadiazol-5-yl]-2-methylpiperazine-1-carboxamide]: the EC50 was determined as 1.69 µM and the Emax is 97%.

Take `CC1CN(c2nc(Cc3ccc(F)cc3)ns2)CCN1C(=O)Nc1ccc(F)c(F)c1` (stereo not shown) [compound 26, N-(3,4-difluorophenyl)-4-[3-(4-fluorobenzyl)-1,2,4-thiadiazol-5-yl]-2-methylpiperazine-1-carboxamide]: the Emax was 70%.

With `COc1ccc(NC(=O)N2CCN(c3nc(Cc4ccc(F)cc4)ns3)CC2)c(OC)c1` [compound 27, N-(2,4-dimethoxyphenyl)-4-[3-(4-fluorobenzyl)-1,2,4-thiadiazol-5-yl]piperazine-1-carboxamide], the Emax turned out to be 67%.

Values taken from patent US7960556B2, “Thiadiazole derivatives for the treatment of neuro-degenerative diseases” (NV reMYND, priority 2006, dated 2011).
